{"source": "paper PMC11127902", "about": "“Rescuing tri-heteromeric NMDA receptor function: the potential of pregnenolone-sulfate in loss-of-function GRIN2B variants” (Cellular and Molecular Life Sciences: CMLS, 2024)", "key": {"[1]": {"system": "Mixed di-heteromeric GluN2B-wt/GluN2B-E413G", "set-up": "method as in PMID 27839871", "conditions": "glutamate; ref 21; cited from earlier work"}, "[2]": {"system": "Mixed tri-heteromeric GluN2A-wt/ GluN2B-A819T", "set-up": "method as in PMID 35110392", "conditions": "glutamate; ref 10; cited from earlier work"}, "[3]": {"system": "Pure variant di-heteromeric GluN2A-T690A", "set-up": "method as in PMID 24607230", "conditions": "glutamate; ref 8; cited from earlier work"}, "[4]": {"system": "Mixed tri-heteromeric GluN2A-H485A/ GluN2B-wt", "set-up": "method as in PMID 24607230", "conditions": "glutamate; ref 8; cited from earlier work"}, "[5]": {"system": "Mixed tri-heteromeric GluN2A-wt/ GluN2B-G543R", "set-up": "method as in PMID 35110392", "conditions": "glutamate; ref 10; cited from earlier work"}, "[6]": {"system": "Pure variant di-heteromeric GluN2A-D731N", "set-up": "method as in PMID 28182669", "conditions": "glutamate; ref 33; cited from earlier work"}, "[7]": {"system": "non-tagged purely di-heteromeric GluN2B-wt", "set-up": "method as in PMID 32168371", "conditions": "read-out: Glutamate EC50 (adapted from[16]); non-tagged human receptors; cited from earlier work"}, "[8]": {"system": "Pure variant di-heteromeric GluN2A-P552R", "set-up": "method as in PMID 28095420", "conditions": "glutamate; di-heteromer section; cited from earlier work"}, "[9]": {"system": "Mixed di-heteromeric GluN2B-wt/GluN2B-G689C", "test": "TEVC in Xenopus oocytes", "conditions": "compared to purely di-heteromeric variant channels", "method": "(§2) Two electrode voltage clamp (TEVC) recordings were carried out 24–72 h after mRNA injections, as previously described [17, 37]. We use a commercial amplifier (Warner Instruments, USA) and Digitizer (Digidata-1550B; Molecular Devices, USA), controlled by the pClamp10 software (Molecular Devices, USA). Electrode were made by pulling glass capillaries (Narishige, Japan) filled with 3 M KCl, into which we inserted chlorinated silver wires. […] For hERG channel recordings, oocytes were clamped at (− 60) mV for 1 s, followed by a voltage jump to 20 mV for 4 s, and an additional voltage jump to (− 50) mV for 6 s and return to baseline voltage (see Supplementary. 6f), as previously described [53].\n(§3) When assessing potentiation by PS, all other solutions also included equal amounts of the DMSO carrier (0.2%).\n(§4) Electrophysiology data were analyzed by Clampfit 11.2 (Molecular Devices, USA), plotted using GraphPad 8 or SigmaPlot 11(Systat software, Inc.). […] In all TEVC recordings in oocytes, the responses were normalized to current amplitude obtained from that individual cell. […] All data are shown as mean ± SEM. In all experiments N indicates the number of independent experiments, whereas n indicates the number of cells recorded. In each experiment, data underwent normality test prior to statistical assessment. Normally distributed data were assessed for significance by using paired t-test or one-way ANOVA for multiple group comparison and post hoc Tukey test or Dunnett's test. Similarly, in the case of non-normally distributed data significance was assessed by Mann Whitney test or Kruskal–Wallis ANOVA on ranks test followed by Dunn’s multiple comparison post hoc; n.s., non-significant; *p < 0.05; **p < 0.01; ***p < 0.001. […] Leak expression was evaluated by normalizing the maximal current (Imax) of each ER-retained NMDAR composition to Imax of control group (which was recorded in all experiments). Estimation of activation time constant (τ) for potentiated currents by PS, was performed by fitting PS- potentiated currents with a standard single-exponential function, from which we extracted the time constant (τ)."}, "[10]": {"target": "Mixed di-heteromeric GluN2B-wt/GluN2B-G689C (Rattus norvegicus, UniProt P35439+Q00960, G689C)", "test": "TEVC in Xenopus oocytes", "conditions": "glutamate dose-response", "method": "as §2, §3, §4"}, "[11]": {"system": "Pure variant di-heteromeric GluN2B-G543R", "set-up": "method as in PMID 35110392", "conditions": "glutamate; ref 10; cited from earlier work"}, "[12]": {"system": "Mixed di-heteromeric GluN2A-wt/GluN2A-S644G", "set-up": "method as in PMID 32577763", "conditions": "glutamate; ref 19; cited from earlier work"}, "[13]": {"system": "Mixed tri-heteromeric GluN2A-wt/ GluN2B-M818T", "set-up": "method as in PMID 35110392", "conditions": "glutamate; ref 10; cited from earlier work"}, "[14]": {"target": "T1, Mixed di-heteromeric GluN2B-wt/GluN2B-G689S (Rattus norvegicus, UniProt P35439+Q00960, G689S)", "T1 construct": "expressed in transfected cells; host or cells: Xenopus laevis oocytes, mRNA injection", "test": "TEVC in Xenopus oocytes", "format": "cell-based", "text": "(§1) Aliquots were thawed before each experiment."}, "[15]": {"target": "T2, Purely di-heteromeric GluN2B-G689S (C1/C2) (Rattus norvegicus, UniProt P35439+Q00959+Q00960, A876H/F846L/G689S/G856D/H848F/K857R/M851T/M860L/Q845K/V861L)", "T2 construct": "expressed in transfected cells; host or cells: Xenopus laevis oocytes, mRNA injection", "T2 sequence (Q00960+Q00959 fused with the stated changes, other chains not shown)": "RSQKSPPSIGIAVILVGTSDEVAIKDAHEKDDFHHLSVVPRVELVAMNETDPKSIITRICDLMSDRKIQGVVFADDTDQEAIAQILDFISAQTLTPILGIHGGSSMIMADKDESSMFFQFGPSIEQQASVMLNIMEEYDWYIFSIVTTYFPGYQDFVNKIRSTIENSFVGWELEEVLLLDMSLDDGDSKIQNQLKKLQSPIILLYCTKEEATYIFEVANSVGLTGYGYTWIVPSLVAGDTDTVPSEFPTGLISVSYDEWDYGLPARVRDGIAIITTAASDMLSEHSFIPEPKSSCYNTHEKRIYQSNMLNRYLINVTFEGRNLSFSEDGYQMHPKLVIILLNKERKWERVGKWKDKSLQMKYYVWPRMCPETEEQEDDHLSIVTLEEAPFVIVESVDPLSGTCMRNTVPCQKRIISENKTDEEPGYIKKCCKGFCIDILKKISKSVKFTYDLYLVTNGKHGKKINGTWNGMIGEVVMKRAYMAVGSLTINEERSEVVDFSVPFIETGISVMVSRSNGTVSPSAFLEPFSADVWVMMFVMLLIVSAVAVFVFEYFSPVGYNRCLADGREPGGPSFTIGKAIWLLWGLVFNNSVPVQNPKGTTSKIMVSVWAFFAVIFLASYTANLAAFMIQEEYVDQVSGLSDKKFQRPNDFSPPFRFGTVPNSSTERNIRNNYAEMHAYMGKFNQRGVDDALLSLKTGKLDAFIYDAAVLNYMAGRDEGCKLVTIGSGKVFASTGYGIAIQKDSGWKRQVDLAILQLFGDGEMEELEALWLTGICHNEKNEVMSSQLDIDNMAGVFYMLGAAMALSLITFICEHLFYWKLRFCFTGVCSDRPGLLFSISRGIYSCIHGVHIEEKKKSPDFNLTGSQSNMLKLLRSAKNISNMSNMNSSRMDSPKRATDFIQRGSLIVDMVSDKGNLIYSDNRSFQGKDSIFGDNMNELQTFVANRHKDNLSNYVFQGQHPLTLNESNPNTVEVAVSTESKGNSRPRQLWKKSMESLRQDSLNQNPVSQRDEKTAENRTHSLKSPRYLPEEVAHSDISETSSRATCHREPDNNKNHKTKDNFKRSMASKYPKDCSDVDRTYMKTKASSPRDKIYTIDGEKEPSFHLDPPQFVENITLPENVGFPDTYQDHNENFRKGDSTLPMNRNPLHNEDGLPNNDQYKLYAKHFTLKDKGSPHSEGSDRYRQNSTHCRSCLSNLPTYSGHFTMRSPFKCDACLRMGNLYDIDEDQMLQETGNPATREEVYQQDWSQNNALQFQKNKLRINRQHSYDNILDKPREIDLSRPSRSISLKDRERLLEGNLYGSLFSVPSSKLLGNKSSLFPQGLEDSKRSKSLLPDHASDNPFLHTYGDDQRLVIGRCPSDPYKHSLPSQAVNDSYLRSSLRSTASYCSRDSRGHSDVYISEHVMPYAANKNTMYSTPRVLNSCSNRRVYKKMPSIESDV", "test": "TEVC in Xenopus oocytes", "format": "cell-based", "text": "as §1"}, "[16]": {"target": "T3, Purely di-heteromeric GluN2B-wt (GluN1-1a-wt + GluN2B-wt-C1/C2) (Rattus norvegicus, UniProt P35439+Q00959+Q00960, A876H/F846L/G856D/H848F/K857R/M851T/M860L/Q845K/V861L)", "T3 construct": "expressed in transfected cells; host or cells: Xenopus laevis oocytes, mRNA injection", "T3 sequence (Q00960+Q00959 fused with the stated changes, other chains not shown)": "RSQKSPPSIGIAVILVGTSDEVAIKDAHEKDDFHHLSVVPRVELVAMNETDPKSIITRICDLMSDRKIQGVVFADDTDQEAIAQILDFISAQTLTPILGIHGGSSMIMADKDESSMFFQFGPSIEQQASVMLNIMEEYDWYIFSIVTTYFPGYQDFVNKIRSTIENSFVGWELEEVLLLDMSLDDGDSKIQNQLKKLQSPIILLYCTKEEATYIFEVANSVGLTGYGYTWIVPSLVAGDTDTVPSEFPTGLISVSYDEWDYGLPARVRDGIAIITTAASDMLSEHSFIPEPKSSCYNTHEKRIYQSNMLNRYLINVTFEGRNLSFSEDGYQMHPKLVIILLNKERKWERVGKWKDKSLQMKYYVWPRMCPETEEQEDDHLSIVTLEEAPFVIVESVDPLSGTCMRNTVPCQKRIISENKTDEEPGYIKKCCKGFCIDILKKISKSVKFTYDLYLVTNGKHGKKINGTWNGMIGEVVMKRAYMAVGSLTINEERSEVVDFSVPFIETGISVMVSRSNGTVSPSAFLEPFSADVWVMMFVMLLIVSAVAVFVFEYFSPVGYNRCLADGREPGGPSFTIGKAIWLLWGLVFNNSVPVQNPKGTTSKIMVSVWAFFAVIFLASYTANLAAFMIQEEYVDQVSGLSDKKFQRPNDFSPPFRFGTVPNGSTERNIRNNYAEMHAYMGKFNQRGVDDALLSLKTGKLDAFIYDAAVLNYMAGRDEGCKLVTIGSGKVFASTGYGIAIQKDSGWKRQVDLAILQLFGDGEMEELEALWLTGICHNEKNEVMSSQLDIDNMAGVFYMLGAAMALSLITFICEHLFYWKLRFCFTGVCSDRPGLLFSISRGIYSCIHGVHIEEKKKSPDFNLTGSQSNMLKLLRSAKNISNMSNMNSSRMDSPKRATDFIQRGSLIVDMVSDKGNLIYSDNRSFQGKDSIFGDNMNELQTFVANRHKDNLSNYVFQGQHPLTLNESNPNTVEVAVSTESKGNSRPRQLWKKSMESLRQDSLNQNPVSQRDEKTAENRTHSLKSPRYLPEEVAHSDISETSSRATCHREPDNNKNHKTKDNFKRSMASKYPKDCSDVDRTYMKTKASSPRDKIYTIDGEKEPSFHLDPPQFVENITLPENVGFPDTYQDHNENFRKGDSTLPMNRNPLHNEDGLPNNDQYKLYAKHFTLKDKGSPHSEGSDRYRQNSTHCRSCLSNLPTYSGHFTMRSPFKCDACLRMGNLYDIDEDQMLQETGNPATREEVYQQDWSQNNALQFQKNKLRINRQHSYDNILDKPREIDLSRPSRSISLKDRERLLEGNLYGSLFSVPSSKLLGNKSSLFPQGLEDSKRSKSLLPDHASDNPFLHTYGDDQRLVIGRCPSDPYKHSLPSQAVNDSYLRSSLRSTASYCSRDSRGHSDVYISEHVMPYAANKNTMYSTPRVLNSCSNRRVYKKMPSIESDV", "test": "TEVC in Xenopus oocytes", "format": "cell-based", "conditions": "glutamate dose-response", "text": "as §1"}, "[17]": {"target": "T4, Purely di-heteromeric GluN2B-G689C (C1/C2) (Rattus norvegicus, UniProt P35439+Q00959+Q00960, A876H/F846L/G689C/G856D/H848F/K857R/M851T/M860L/Q845K/V861L)", "T4 construct": "expressed in transfected cells; host or cells: Xenopus laevis oocytes, mRNA injection", "T4 sequence (Q00960+Q00959 fused with the stated changes, other chains not shown)": "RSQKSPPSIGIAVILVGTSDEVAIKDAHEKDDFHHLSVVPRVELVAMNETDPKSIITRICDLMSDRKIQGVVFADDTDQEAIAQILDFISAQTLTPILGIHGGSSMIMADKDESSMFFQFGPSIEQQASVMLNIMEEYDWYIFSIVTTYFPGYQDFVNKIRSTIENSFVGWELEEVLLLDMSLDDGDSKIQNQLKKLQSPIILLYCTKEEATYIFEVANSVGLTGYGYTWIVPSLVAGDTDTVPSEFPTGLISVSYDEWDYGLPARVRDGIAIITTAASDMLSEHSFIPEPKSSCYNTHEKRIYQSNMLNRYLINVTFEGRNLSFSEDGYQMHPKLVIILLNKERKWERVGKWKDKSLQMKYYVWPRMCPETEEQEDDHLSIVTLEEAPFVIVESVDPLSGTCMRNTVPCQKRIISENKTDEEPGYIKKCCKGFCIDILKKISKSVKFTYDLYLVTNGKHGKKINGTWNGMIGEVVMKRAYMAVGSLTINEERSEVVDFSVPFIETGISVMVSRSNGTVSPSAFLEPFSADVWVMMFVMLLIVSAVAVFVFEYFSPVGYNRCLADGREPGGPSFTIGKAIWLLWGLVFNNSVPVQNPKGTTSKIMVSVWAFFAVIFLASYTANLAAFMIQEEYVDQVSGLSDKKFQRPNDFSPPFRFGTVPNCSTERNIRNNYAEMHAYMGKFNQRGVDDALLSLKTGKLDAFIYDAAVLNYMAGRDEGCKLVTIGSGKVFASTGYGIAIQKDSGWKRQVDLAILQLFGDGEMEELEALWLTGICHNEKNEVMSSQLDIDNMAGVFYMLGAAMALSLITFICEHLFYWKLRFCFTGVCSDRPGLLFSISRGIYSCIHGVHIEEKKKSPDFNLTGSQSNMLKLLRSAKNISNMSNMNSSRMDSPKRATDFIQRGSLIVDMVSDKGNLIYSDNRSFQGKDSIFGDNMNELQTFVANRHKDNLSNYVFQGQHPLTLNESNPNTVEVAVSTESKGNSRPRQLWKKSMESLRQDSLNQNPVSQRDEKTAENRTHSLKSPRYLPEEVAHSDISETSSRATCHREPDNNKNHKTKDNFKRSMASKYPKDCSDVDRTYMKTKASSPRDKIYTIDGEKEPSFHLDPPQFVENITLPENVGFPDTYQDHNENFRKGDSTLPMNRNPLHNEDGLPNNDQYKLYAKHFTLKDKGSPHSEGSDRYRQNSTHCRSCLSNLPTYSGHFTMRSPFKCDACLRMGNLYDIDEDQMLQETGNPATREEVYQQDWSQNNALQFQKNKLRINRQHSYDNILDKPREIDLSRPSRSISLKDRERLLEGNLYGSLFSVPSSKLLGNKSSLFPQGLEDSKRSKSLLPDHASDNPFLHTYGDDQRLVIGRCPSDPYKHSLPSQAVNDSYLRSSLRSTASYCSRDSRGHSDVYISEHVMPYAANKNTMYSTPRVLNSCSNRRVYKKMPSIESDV", "test": "TEVC in Xenopus oocytes", "format": "cell-based", "text": "as §1"}, "[18]": {"system": "Mixed tri-heteromeric GluN2A-wt/ GluN2B-A639V", "set-up": "method as in PMID 35110392", "conditions": "glutamate; ref 10; cited from earlier work"}, "[19]": {"system": "Double Variant Tri-Heteromeric NMDAR (GluN2A-H485A, GluN2B-H486A)", "set-up": "method as in PMID 24607230", "conditions": "glutamate; ref 8; cited from earlier work"}, "[20]": {"target": "Tri-heteromeric GluN2A-wt/GluN2B-wt (Rattus norvegicus, UniProt P35439+Q00959+Q00960, A876H/F846L/G856D/H848F/K857R/M851T/M860L/Q845K/V861L)", "test": "TEVC in Xenopus oocytes", "conditions": "glutamate dose-response", "method": "as §2, §3\nElectrophysiology data were analyzed by Clampfit 11.2 (Molecular Devices, USA), plotted using GraphPad 8 or SigmaPlot 11(Systat software, Inc.). […] In all TEVC recordings in oocytes, the responses were normalized to current amplitude obtained from that individual cell. […] All data are shown as mean ± SEM. In all experiments N indicates the number of independent experiments, whereas n indicates the number of cells recorded. In each experiment, data underwent normality test prior to statistical assessment. Normally distributed data were assessed for significance by using paired t-test or one-way ANOVA for multiple group comparison and post hoc Tukey test or Dunnett's test. Similarly, in the case of non-normally distributed data significance was assessed by Mann Whitney test or Kruskal–Wallis ANOVA on ranks test followed by Dunn’s multiple comparison post hoc; n.s., non-significant; *p < 0.05; **p < 0.01; ***p < 0.001. […] Leak expression was evaluated by normalizing the maximal current (Imax) of each ER-retained NMDAR composition to Imax of control group (which was recorded in all experiments). […]"}, "[21]": {"system": "Mixed di-heteromeric GluN2A-wt/GluN2A-T690A", "set-up": "method as in PMID 24607230", "conditions": "glutamate; ref 8; cited from earlier work"}, "[22]": {"system": "Mixed di-heteromeric GluN2A-wt/GluN2A-P552R", "set-up": "method as in PMID 28095420", "conditions": "glutamate; ref 32; cited from earlier work"}, "[23]": {"system": "Pure variant di-heteromeric GluN2A-S644G", "set-up": "method as in PMID 32577763", "conditions": "glutamate; di-heteromer section; cited from earlier work"}, "[24]": {"system": "Mixed di-heteromeric GluN2A-wt/GluN2A-D731N", "set-up": "method as in PMID 28182669", "conditions": "glutamate; ref 33; cited from earlier work"}, "[25]": {"system": "Pure variant di-heteromeric GluN2A-H485A", "set-up": "method as in PMID 24607230", "conditions": "glutamate; ref 8; cited from earlier work"}, "[26]": {"conditions": "compared to GluN2B-wt-C1/C2 receptors"}}, "data": [{"smiles": "N[C@@H](CCC(=O)O)C(=O)O", "note": "[Glutamate, glutamate]", "values": [{"measurement": "EC50", "setting": "[1]", "result": 21, "unit": "µM"}, {"measurement": "EC50", "setting": "[2]", "result": 0.71, "unit": "µM"}, {"measurement": "EC50", "setting": "[3]", "result": 2700, "unit": "µM"}, {"measurement": "EC50", "setting": "[4]", "result": 210, "unit": "µM"}, {"measurement": "EC50", "setting": "[5]", "result": 1.9, "unit": "µM"}, {"measurement": "EC50", "setting": "[6]", "result": 30000, "unit": "µM"}, {"measurement": "EC50", "setting": "[7]", "result": "1.4 ± 0.1", "unit": "µM"}, {"measurement": "EC50", "setting": "[8]", "result": 0.64, "unit": "µM"}, {"measurement": "higher (improved) glutamate potency", "setting": "[9]", "result": "~ four-fold"}, {"measurement": "Hill coefficient (nH)", "setting": "[10]", "result": "0.75 ± 0.08 n.s (N = 6, n = 54)"}, {"measurement": "EC50", "setting": "[11]", "result": 0.22, "unit": "µM"}, {"measurement": "EC50", "setting": "[12]", "result": 0.7, "unit": "µM"}, {"measurement": "EC50", "setting": "[13]", "result": 0.96, "unit": "µM"}, {"measurement": "higher (improved) glutamate potency", "setting": "[14]; compared to purely di-heteromeric variant channels", "result": "~ four-fold"}, {"measurement": "Hill coefficient (nH)", "setting": "[14]; glutamate dose-response", "result": "1.02 ± 0.10 n.s (N = 1, n = 13)"}, {"measurement": "increase in the EC50 value", "setting": "[15]; [26]", "result": "> 3000", "unit": "fold"}, {"measurement": "Hill coefficient (nH)", "setting": "[15]; glutamate dose-response", "result": "2.45 ± 0.41 (N = 2, n = 9)"}, {"measurement": "Hill coefficient (nH)", "setting": "[16]", "result": "0.86 ± 0.29 (N = 6, n = 38)"}, {"measurement": "increase in the EC50 value", "setting": "[17]; [26]", "result": "~ 2000 fold"}, {"measurement": "Hill coefficient (nH)", "setting": "[17]; glutamate dose-response", "result": "2.04 ± 0.28 (N = 2, n = 13)"}, {"measurement": "EC50", "setting": "[18]", "result": 0.58, "unit": "µM"}, {"measurement": "EC50", "setting": "[19]", "result": 730, "unit": "µM"}, {"measurement": "Hill coefficient (nH)", "setting": "[20]", "result": "0.77 ± 0.22 (N = 3, n = 33)"}, {"measurement": "EC50", "setting": "[21]", "result": 660, "unit": "µM"}, {"measurement": "EC50", "setting": "[22]", "result": 1.2, "unit": "µM"}, {"measurement": "EC50", "setting": "[23]", "result": 0.05, "unit": "µM"}, {"measurement": "EC50", "setting": "[24]", "result": 6450, "unit": "µM"}, {"measurement": "EC50", "setting": "[25]", "result": 1060, "unit": "µM"}]}]}
